Where a name gives a salt, the structure may show the parent alone.
target: T1, recombinant human CXCR2 (Homo sapiens, UniProt P25025); assay: CXCR2 Tango assay; format: cell-based; conditions: mean pIC50 of multiple test results; stimulated with 80 nM hCXCL1; reporter gene blue/green emission ratio; read-out: pIC50 (CXCR2 Tango assay) (converted)
T1 construct: TEV protease site; Gal4-VP16 transcription factor
T1 sequence (P25025 1-360): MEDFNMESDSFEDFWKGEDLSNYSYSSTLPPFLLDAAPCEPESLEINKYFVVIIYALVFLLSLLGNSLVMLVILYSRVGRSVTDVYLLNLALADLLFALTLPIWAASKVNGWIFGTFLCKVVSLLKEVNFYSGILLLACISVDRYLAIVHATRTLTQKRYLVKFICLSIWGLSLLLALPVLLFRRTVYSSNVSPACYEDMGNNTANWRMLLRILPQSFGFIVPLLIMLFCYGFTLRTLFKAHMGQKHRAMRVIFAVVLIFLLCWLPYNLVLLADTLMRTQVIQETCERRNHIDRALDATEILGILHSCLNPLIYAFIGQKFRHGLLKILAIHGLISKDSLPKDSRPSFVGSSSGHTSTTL
How it was run: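 Mean pIC50 comes from sigmoidal fits of the blue/green (460/530 nm) CCF4-AM ratio, normalized between hCXCL1-stimulated and DMSO controls. Compounds in 10-point dose response were incubated overnight at 37 °C with recombinant human CXCR2 Tango cells (~10,000/well) and 80 nM hCXCL1, with reporter read-out via arrestin-TEV release of Gal4-VP16.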

Row | Structure (SMILES) | IC50
1 | CC1=CCCC1NC(=O)Nc1ccc(Cl)c(S(=O)(=O)C(C)(C)c2ccccn2)c1O (centres unmarked) [Compound 102, 1-(4-chloro-2-hydroxy-3-((2-(pyridin-2-yl)propan-2-yl)sulfonyl)phenyl)-3-(2-methylcyclopent-2-en-1-yl)urea, trifluoroacetic acid salt] | ≤ 10 nM
2 | CC1=CCCC1NC(=O)Nc1ccc(Cl)c(S(=O)(=O)C(C)(C)C2CCOCC2)c1O (centres unmarked) [Compound 103, 1-(4-chloro-2-hydroxy-3-((2-(tetrahydro-2H-pyran-4-yl)propan-2-yl)sulfonyl)phenyl)-3-(2-methylcyclopent-2-en-1-yl)urea] | ≤ 10 nM
3 | CC1=CCCC1NC(=O)Nc1ccc(Cl)c(S(=O)(=O)C2CCc3nccn3C2)c1O (centres unmarked) [Compound 108, 1-(4-chloro-2-hydroxy-3-((5,6,7,8-etrahydroimidazo [1,2-a]pyridin-6-yl)sulfonyl)phenyl)-3-(2-methylcyclopent-2-en-1-yl)urea, trifluoroacetic acid salt] | ≤ 10 nM
4 | CC1=CCCC1NC(=O)Nc1ccc(Cl)c(S(=O)(=O)C2CCN3CCCC3C2)c1O (centres unmarked) [Compound 109, 1-(4-chloro-2-hydroxy-3-((octahydroindolizin-7-yl)sulfonyl)phenyl)-3-(2-methylcyclopent-2-en-1-yl)urea, trifluoroacetic acid salt] | ≤ 10 nM
5 | CC1=CCCC1NC(=O)Nc1ccc(Cl)c(S(=O)(=O)N2CCC(F)(F)CC2)c1O (centres unmarked) [Compound 115, 1-(4-chloro-3-((4,4-difluoropiperidin-1-yl)sulfonyl)-2-hydroxyphenyl)-3-(2-methylcyclopent-2-en-1-yl)urea] | ≤ 10 nM
6 | CC1=CCCC1NC(=O)Nc1ccc(Cl)c(S(=O)(=O)N2CCn3ccnc3C2)c1O (centres unmarked) [Compound 117, 1-(4-chloro-3-((5,6-dihydroimidazo [1,2-a]pyrazin-7(8H)-yl)sulfonyl)-2-hydroxyphenyl)-3-(2-methylcyclopent-2-en-1-yl)urea] | ≤ 10 nM

Now from value to molecule:

Row | IC50 | Structure (SMILES)
7 | ≤ 1 nM | CC1=CCCC1NC(=O)Nc1ccc(Cl)c(S(=O)(=O)C(C)(C)C(F)(F)F)c1O (centres unmarked) [Compound 101, 1-(4-chloro-2-hydroxy-3-((1,1,1-trifluoro-2-methylpropan-2-yl)sulfonyl)phenyl)-3-(2-methylcyclopent-2-en-1-yl)urea]
8 | ≤ 10 nM | CC1=CCCC1NC(=O)Nc1ccc(Cl)c(S(=O)(=O)C(C)(C)F)c1O (centres unmarked) [Compound 105, 1-(4-chloro-3-((2-fluoropropan-2-yl)sulfonyl)-2-hydroxyphenyl)-3-(2-methylcyclopent-2-en-1-yl)urea]
9 | ≤ 1 nM | CC1=CCCC1NC(=O)Nc1ccc(Cl)c(S(=O)(=O)C(C)(F)F)c1O (centres unmarked) [Compound 106, 1-(4-chloro-3-((1,1-difluoroethyl)sulfonyl)-2-hydroxyphenyl)-3-(2-methylcyclopent-2-en-1-yl)urea]
10 | ≤ 10 nM | CC1=CCCC1NC(=O)Nc1ccc(Cl)c(S(=O)(=O)N2CC(F)(F)C2)c1O (centres unmarked) [Compound 111, 1-(4-chloro-3-((3,3-difluoroazetidin-1-yl)sulfonyl)-2-hydroxyphenyl)-3-(2-methylcyclopent-2-en-1-yl)urea]
11 | ≤ 10 nM | CC1=CCCC1NC(=O)Nc1ccc(Cl)c(S(=O)(=O)N2CC[C@@H](F)C2)c1O (stereo partly drawn) [Compound 113, 1-(4-chloro-3-(((R)-3-fluoropyrrolidin-1-yl)sulfonyl)-2-hydroxyphenyl)-3-(2-methylcyclopent-2-en-1-yl)urea]
12 | ≤ 10 nM | CC1=CCCC1NC(=O)Nc1ccc(Cl)c(S(=O)(=O)N2CCCC2)c1O (centres unmarked) [Compound 116, 1-(4-chloro-2-hydroxy-3-(pyrrolidin-1-ylsulfonyl)phenyl)-3-(2-methylcyclopent-2-en-1-yl)urea]
13 | ≤ 10 nM | CC1=CCCC1NC(=O)Nc1ccc(Cl)c(S(=O)(=O)N2CCOCC2)c1O (centres unmarked) [Compound 118, 1-(4-chloro-2-hydroxy-3-(morpholinosulfonyl)phenyl)-3-(2-methylcyclopent-2-en-1-yl)urea]
14 | ≤ 10 nM | CCC1=CCCC1NC(=O)Nc1ccc(Cl)c(S(=O)(=O)C(C)C)c1O (centres unmarked) [Compound 120, 1-(4-chloro-2-hydroxy-3-(isopropylsulfonyl)phenyl)-3-(2-ethylcyclopent-2-en-1-yl)urea]
